In this assay the target is T1, PHD2 (Homo sapiens, UniProt Q9GZT9).
T1 construct: FLAG-tagged full length PHD2expressed in and purified from baculovirus-infected Sf9 cells; FLAG; made in house; host or cells: baculovirus-infected Sf9 cells
Kind of assay: Assay for HIF-PHD2 Catalytic Activity (time resolved fluorescence, VHL complex detection). The following applies: FLAG-tagged full length PHD2; 0.2 μM 2-oxoglutarate, 0.5 μM HIF-1α peptide; read-out: PHD2 Binding Activity IC50. The assay is classed as biochemical. As for the experimental part: Assay for HIF-PHD2Catalytic Activity To each well of a 96-well plate was added 1 μL of test compound in DMSO and 20 μl of assay buffer (50 mM Tris pH 7.4/0.01% Tween-20/0.1 mg/ml bovine serum albumin/10 μM ferrous sulfate/1mM sodium ascorbate/20 μg/ml catalase) containing 0.15 μg/ml FLAG-tagged full length PHD2expressed in and purified from baculovirus-infected Sf9 cells. After a 30 min preincubation at room temperature, the enzymatic reactions were initiated by the addition of 4 μL of substrates (final concentrations of 0.2 μM 2-oxoglutarate and 0.5 μM HIF-1α peptide biotinyl-DLDLEMLAPYJPMDDDFQL).

T1 sequence (Q9GZT9 whole entry): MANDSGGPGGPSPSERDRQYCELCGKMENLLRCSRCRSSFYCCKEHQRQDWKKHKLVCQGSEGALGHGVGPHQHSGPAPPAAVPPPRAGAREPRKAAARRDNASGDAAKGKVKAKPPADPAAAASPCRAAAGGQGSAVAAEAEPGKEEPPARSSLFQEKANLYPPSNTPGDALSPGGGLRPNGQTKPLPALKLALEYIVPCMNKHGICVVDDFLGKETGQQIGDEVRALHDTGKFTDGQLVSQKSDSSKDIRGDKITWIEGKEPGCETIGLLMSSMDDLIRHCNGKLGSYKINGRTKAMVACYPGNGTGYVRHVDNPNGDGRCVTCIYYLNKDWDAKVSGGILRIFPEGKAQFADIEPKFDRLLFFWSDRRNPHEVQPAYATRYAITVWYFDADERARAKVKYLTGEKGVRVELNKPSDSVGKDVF

For the molecule `O=C(O)CNC(=O)c1c(O)c2c(n(Cc3ccc(-c4ccccc4C(F)(F)F)cc3)c1=O)COC2` [Example 33, N-[(4-hydroxy-2-oxo-1-{[2′-(trifluoromethyl)biphenyl-4-yl]methyl}-1,2,5,7-tetrahydrofuro[3,4-b]pyridin-3-yl}carbonyl)glycine], the half-maximal inhibitory concentration (IC50) was less than 10 nM.

For `O=C(O)CNC(=O)c1c(O)c2c(n(Cc3ccc(-c4ccccc4OCC(F)(F)F)cc3)c1=O)COC2` [Example 34, N-[(4-hydroxy-1-{[2′-(2,2,2-trifluoroethoxy)biphenyl-4-yl]methyl}-2-oxo-1,2,5,7-tetrahydrofuro[3,4-b]pyridin-3-yl}carbonyl)glycine], the IC50 was less than 10 nM. The result for `O=C(O)CNC(=O)c1c(O)c2c(n(Cc3ccc(-c4ccc(Cl)cc4Cl)cc3)c1=O)COC2` [Example 35] reads less than 10 nM. Regarding `COC(=O)c1ccccc1-c1ccc(Cn2c3c(c(O)c(C(=O)NCC(=O)O)c2=O)COC3)cc1` [Example 36, N-[(4-hydroxy-1-{[2′-(methoxycarbonyl)biphenyl-4-yl]methyl}-2-oxo-1,2,5,7-tetrahydrofuro[3,4,-b]pyridin-3-yl}carbonyl)glycine], the IC50 was less than 10 nM. `O=C(O)CNC(=O)c1c(O)c2c(n(Cc3ccc(-c4ccc(F)cc4Cl)cc3)c1=O)COC2` [Example 37]: the 50% inhibitory concentration (IC50) was less than 10 nM. Then `O=C(O)CNC(=O)c1c(O)c2c(n(Cc3ccc(-c4ccccc4Cl)cc3F)c1=O)COC2` [Example 38], with less than 10 nM; and `O=C(O)CNC(=O)c1c(O)c2c(n(Cc3ccc(-c4ccc(F)cc4Cl)cc3F)c1=O)COC2` [Example 39], with less than 10 nM; and `CCN(CC)C(=O)c1ccccc1-c1ccc(Cn2c3c(c(O)c(C(=O)NCC(=O)O)c2=O)COC3)c(F)c1` [Example 40], with less than 10 nM. The result for `O=C(O)CNC(=O)c1c(O)c2c(n(Cc3ccc(-c4ccccc4)nc3)c1=O)COC2` [Example 41, N-({4-hydroxy-2-oxo-1-[(6-phenylpyridin-3-yl)methyl]-1,2,5,7-tetrahydrofuro[3,4-b]pyridin-3-yl}carbonyl)glycine] reads less than 10 nM; that for `O=C(O)CNC(=O)c1c(O)c2c(n(Cc3ccc(-c4cc(Cl)cc(Cl)c4)nc3)c1=O)COC2` [Example 42, N-[(1-{[6-(3,5-dichlorophenyl)pyridin-3-yl]methyl}-4-hydroxy-2-oxo-1,2,5,7-tetrahydrofuro[3,4-b]pyridin-3-yl)carbonyl]glycine], less than 10 nM; that for `Cn1cc(-c2ccc(Cn3c4c(c(O)c(C(=O)NCC(=O)O)c3=O)COC4)cn2)cn1` [Example 43, N-[(4-hydroxy-1-{[6-(1-methyl-1H-pyrazol-4-yl)pyridin-3-yl)methyl}-2-oxo-1,2,5,7-tetrahydrofuro[3,4-b]pyridin-3-yl)carbonyl]glycine], less than 10 nM. Regarding `O=C(O)CNC(=O)c1c(O)c2c(n(Cc3ccc(-c4ccc(F)cc4F)nc3)c1=O)COC2` [Example 44, N-[(1-{[6-(2,4-difluorophenyl)pyridin-3-yl]methyl}-4-hydroxy-2-oxo-1,2,5,7-tetrahydrofuro[3,4-b]pyridin-3-yl)carbonyl]glycine], the IC50 is less than 10 nM. For the molecule `O=C(O)CNC(=O)c1c(O)c2c(n(Cc3ccc(-c4cc(F)ccc4F)nc3)c1=O)COC2` [Example 45, N-[(1-{[6-(2,5-difluorophenyl)pyridin-3-yl]methyl}-4-hydroxy-2-oxo-1,2,5,7-tetrahydrofuro[3,4-b]pyridin-3-yl)carbonyl]glycine], the IC50 was less than 10 nM. The result for `O=C(O)CNC(=O)c1c(O)c2c(n(Cc3ccc(-c4ccccc4OCC(F)(F)F)nc3)c1=O)COC2` [Example 46] reads less than 10 nM; that for `O=C(O)CNC(=O)c1c(O)c2c(n(Cc3ccc(-c4ccccc4C(F)(F)F)nc3)c1=O)COC2` [Example 47, N-{[4-hydroxy-2-oxo-1-({6-[2-(trifluoromethyl)phenyl]pyridin-3-yl}methyl)-1,2,5,7-tetrahydrofuro[3,4-b]pyridin-3-yl]carbonyl}glycine], less than 10 nM. The result for `O=C(O)CNC(=O)c1c(O)c2c(n(Cc3ccc(-c4ccccc4OC(F)(F)F)nc3)c1=O)COC2` [Example 48, N-{[4-hydroxy-2-oxo-1-({6-[2-(trifluoromethoxy)phenyl]pyridin-3-yl}methyl)-1,2,5,7-tetrahydrofuro[3,4-b]pyridin-3-yl]carbonyl}glycine] reads less than 10 nM. As to `O=C(O)CNC(=O)c1c(O)c2c(n(Cc3ccc(-c4ccccc4F)nc3)c1=O)COC2` [Example 49, N-[(1-{[6-(2-fluorophenyl)pyridin-3-yl]methyl}-4-hydroxy-2-oxo-1,2,5,7-tetrahydrofuro[3,4-b]pyridin-3-yl)carbonyl]glycine], the IC50 is less than 10 nM. Then `O=C(O)CNC(=O)c1c(O)c2c(n(Cc3ccc(-c4ccc(F)cc4Cl)nc3)c1=O)COC2` [Example 50, N-[(1-{[6-(2-chloro-4-fluorophenyl)pyridin-3-yl]methyl}-4-hydroxy-2-oxo-1,2,5,7-tetrahydrofuro[3,4-b]pyridin-3-yl)carbonyl]glycine], with less than 10 nM; and `O=C(O)CNC(=O)c1c(O)c2c(n(Cc3cnc(-c4ccc(F)cc4F)cn3)c1=O)COC2` [Example 51, N-[(1-{[5-(2,4-difluorophenyl)pyrazin-2-yl]methyl}-4-hydroxy-2-oxo-1,2,5,7-tetrahydrofuro[3,4-b]pyridin-3-yl)carbonyl]glycine], with less than 10 nM; and `O=C(O)CNC(=O)c1c(O)c2c(n(Cc3cnc(-c4ccc(F)c(F)c4)cn3)c1=O)COC2` [Example 52, N-[(1-{[5-(3,4-difluorophenyl)pyrazin-2-yl]methyl}-4-hydroxy-2-oxo-1,2,5,7-tetrahydrofuro[3,4-b]pyridin-3-yl)carbonyl]glycine], with less than 10 nM. Then `O=C(O)CNC(=O)c1c(O)c2c(n(Cc3cnc(-c4ccccc4Cl)cn3)c1=O)COC2` [Example 53, N-[(1-{[5-(2-chlorophenyl)pyrazin-2-yl]methyl}-4-hydroxy-2-oxo-1,2,5,7-tetrahydrofuro[3,4-b]pyridin-3-yl)carbonyl]glycine], with less than 10 nM; and `O=C(O)CNC(=O)c1c(O)c2c(n(Cc3cnc(-c4ccccc4OC(F)(F)F)cn3)c1=O)COC2` [Example 54, N-[(1-{[5-(2-trifluoromethoxyphenyl)pyrazin-2-yl]methyl}-4-hydroxy-2-oxo-1,2,5,7-tetrahydrofuro[3,4-b]pyridin-3-yl)carbonyl]glycine], with less than 10 nM.

The term IC50 denotes the concentration at which inhibition is half-maximal.

For the origin of these results see patent US8471024B2, “Tetrahydrofuropyridones” (priority 2008, dated 2013).
